According to article PMC7199972 (PLoS ONE, 2020):
Each block holds one compound with its values, some of them ahead of it. Residues, ends and D or L forms follow the SMILES beside them.

Tests used:
[1] = Cerebrospinal fluid stability of γ-MSH peptides; format: in vitro ADME; settings: pooled human CSF, 2 μM peptide, 37°C, up to 72 h, residual cAMP signaling on TA MC3R
Protocol: (§1) For studies on the plasma stability of TA/SA γ-MSH, lyophilized citrated plasma from a pool of human donors was reconstituted in H2O as indicated by the manufacturer (# P9523, Sigma-Aldrich Chemie GmbH). Stability of human γ-MSH peptides was evaluated in fresh frozen human plasma (Interregional Blood Transfusion Swiss Red Cross Ltd, Epalinges, Swizerland). To this end, pooled samples of complete EDTA blood were centrifuged for 10 min at 1300 g, plasma was separated from buffy coat and erythrocytes and cleared by an additional 10 min centrifugation step at 1300 g. Cerebrospinal fluid pooled from ≥ 3 human donors was provided in liquid phase (# 991-19-P, Lee Biosolutions Inc., Maryland Heights, MO, USA). […]
(§2) The residual TA/SA or human γ-MSH signaling activities were simultaneously analyzed on Glo-sensor and TA or human MC3R transfected HEK293T cells, respectively. […] Maximal luminescence values for the residual γ-MSH ligand activities were determined for all time points in the degradation time course, were baseline subtracted and normalized to the maximal luminescence value at time point zero for the same ligand in the same plate. All degradation time courses were performed in triplicate and read on three separate 96 well plates. […] Degradation curves were established by non-linear regression curve fit (least square fit) and half-lives determined from one phase decay curves. […]

[2] = Plasma stability of TA/SA γ-MSH peptides in reconstituted human plasma; format: in vitro ADME; settings: 37°C
Protocol: For studies on the plasma stability of TA/SA γ-MSH, lyophilized citrated plasma from a pool of human donors was reconstituted in H2O as indicated by the manufacturer (# P9523, Sigma-Aldrich Chemie GmbH). Stability of human γ-MSH peptides was evaluated in fresh frozen human plasma (Interregional Blood Transfusion Swiss Red Cross Ltd, Epalinges, Swizerland). To this end, pooled samples of complete EDTA blood were centrifuged for 10 min at 1300 g, plasma was separated from buffy coat and erythrocytes and cleared by an additional 10 min centrifugation step at 1300 g. Cerebrospinal fluid pooled from ≥ 3 human donors was provided in liquid phase (# 991-19-P, Lee Biosolutions Inc., Maryland Heights, MO, USA). Aliquots of both body fluids were stored at -80°C until use. Samples of reconstituted plasma or CSF were thawed on ice, the pH of fresh frozen plasma was adjusted to 7.4 by addition of triethanolamine to a final concentration of 50 mM, and 45 μl aliquots were distributed to 1.5 ml Protein LoBind Tubes (Eppendorf AG, Hamburg, Germany). The γ-MSH synthetic peptides were pre-diluted in H2O to 20 μM, and 5 μl each were added on ice to 45 μl pre-laid samples of plasma or CSF. The γ-MSH starting concentration in degradation assays was thus 2 μM. Immediately after mixing, a first 5 μl aliquot for time point zero was removed, tubes were then transferred to a 37°C heat block, and further 5 μl aliquots were collected from plasma and CSF samples after various incubation times up to 68 h and 72.5 h, respectively. For control purposes, γ-MSH peptides were also diluted in H2O to a concentration of 2 μM and aliquots were removed after the corresponding incubation times at 37°C. All collected 5 μl aliquots were immediately diluted in 45 μl H2O and frozen on dry ice in 96 well V-bottom non-binding microplates (Greiner Bio-One Vacuette Schweiz GmbH, St. Gallen, Schweiz) to stop further degradation. After completion of degradation time courses, collection plates were stored at -80°C.
as §2

[3] = Plasma stability of human γ-MSH peptides in fresh frozen human plasma; format: in vitro ADME; settings: 37°C, non-glycosylated synthetic peptides
Protocol: as §1, §2

[4] = supernatants of mock-transfected HEK293T cells (IRES GFP-plasmid only); settings: human (HEK293T)
TA PC2 (with mouse 7B2) = experiment: supernatants of HEK293T cells transfected with TA PCSK2 and mouse 7B2 plasmids, 5 mM CaCl2, pH 5.5 (pH 4.1 to 8.1); settings: human (HEK293T); Tyto alba alba enzyme
TA PC1/3 = experiment: supernatants of HEK293T cells transfected with TA PCSK1 plasmid, 5 mM CaCl2, pH 5.5 (pH 4.1 to 8.1); settings: human (HEK293T); Tyto alba alba enzyme
[5] = Cerebrospinal fluid pooled from ≥ 3 human donors; settings: 37°C, up to 72.5 h

half-life in human CSF [1]: > 7.5 h | stability in human cerebrospinal fluid ([1]; triplicate): stable for several hours | plasma half-life ([2]; reconstituted pooled human plasma, 2 μM peptide, residual cAMP signaling on TA MC3R, one-phase decay, triplicate): 0.45 h
Compound: CSCC[C@H](NC(=O)[C@@H](NC(=O)[C@@H](N)Cc1ccc(O)cc1)C(C)C)C(=O)N[C@@H](CO)C(=O)N[C@@H](Cc1c[nH]cn1)C(=O)N[C@@H](Cc1ccccc1)C(=O)N[C@@H](CCCNC(=N)N)C(=O)N[C@@H](Cc1c[nH]c2ccccc12)C(=O)N[C@@H](CC(N)=O)C(=O)N[C@@H](CCCCN)C(=O)N[C@@H](Cc1ccccc1)C(=O)NCC(N)=O [SA / TA γ2-MSH] (H-YVMSHFRWNKFG-NH2)

plasma half-life, fold longer than that of γ2-MSH ([2]; reconstituted human plasma): 70 fold | plasma half-life, fold longer than that of γ3-MSH containing 5 serines ([2]; reconstituted human plasma): > 6 fold | plasma half-life (t1/2) ([2]; reconstituted lyophilized citrated pooled human plasma, 2 μM peptide, up to 68 h, residual cAMP signaling on TA MC3R/Glo-sensor HEK293T (luminescence), one-phase decay, triplicate): > 30 h
Compound: CSCC[C@H](NC(=O)[C@@H](NC(=O)[C@@H](N)Cc1ccc(O)cc1)C(C)C)C(=O)N[C@@H](CO)C(=O)N[C@@H](Cc1c[nH]cn1)C(=O)N[C@@H](Cc1ccccc1)C(=O)N[C@@H](CCCNC(=N)N)C(=O)N[C@@H](Cc1c[nH]c2ccccc12)C(=O)N[C@@H](CC(N)=O)C(=O)N[C@@H](CCCCN)C(=O)N[C@@H](Cc1ccccc1)C(=O)NCC(=O)N[C@@H](CCCNC(=N)N)C(=O)N[C@@H](CCCNC(=N)N)C(=O)N[C@@H](CC(N)=O)C(=O)N[C@@H](CO)C(=O)N[C@@H](CO)C(=O)N[C@@H](CO)C(=O)N[C@@H](CO)C(=O)N[C@@H](CO)C(=O)N[C@@H](CO)C(=O)N[C@@H](CO)C(=O)N[C@@H](CO)C(=O)N[C@@H](CO)C(=O)N[C@@H](CO)C(=O)N[C@@H](CO)C(=O)N[C@@H](CO)C(=O)N[C@@H](CO)C(=O)NCC(=O)NCC(=O)N[C@@H](Cc1c[nH]cn1)C(=O)O [TA γ3-MSH 13 S] (H-YVMSHFRWNKFGRRNSSSSSSSSSSSSSGGH-OH)

plasma stability, fold increased over human γ2-MSH [3]: > 100 fold
Compound: CSCC[C@H](NC(=O)[C@@H](NC(=O)[C@@H](N)Cc1ccc(O)cc1)C(C)C)C(=O)NCC(=O)N[C@@H](Cc1c[nH]cn1)C(=O)N[C@@H](Cc1ccccc1)C(=O)N[C@@H](CCCNC(=N)N)C(=O)N[C@@H](Cc1c[nH]c2ccccc12)C(=O)N[C@@H](CC(=O)O)C(=O)N[C@@H](CCCNC(=N)N)C(=O)N[C@@H](Cc1ccccc1)C(=O)NCC(=O)N[C@@H](CCCNC(=N)N)C(=O)N[C@@H](CCCNC(=N)N)C(=O)N[C@@H](CC(N)=O)C(=O)N[C@@H](CO)C(=O)N[C@@H](CO)C(=O)N[C@@H](CO)C(=O)N[C@@H](CO)C(=O)NCC(=O)N[C@@H](CO)C(=O)N[C@@H](CO)C(=O)NCC(=O)N[C@@H](C)C(=O)NCC(=O)N[C@@H](CCC(N)=O)C(=O)O [human γ3-MSH (wt)] (H-YVMGHFRWDRFGRRNSSSSGSSGAGQ-OH)

not cleaved [4]: no activity across the entire pH range | cleaved bond (TA PC2 (with mouse 7B2)): R-AMC | cleaved bond (TA PC1/3): R-AMC
Compound: Pyr-ERTKR-AMC (L-pyroglutamyl-(arginine-threonine-lysine-arginine)-7-amino-3-methylcoumarin)

not cleaved [5]: completely stable in CSF (up to 72 h)
Compound: YVMSHFRWNKFGRRNSSSSSGGH

not cleaved [5]: completely stable in CSF (up to 72 h)
Compound: YVMSHFRWNKFGRRNSSSSSSSSSSSSSGGH

not cleaved [5]: completely stable in CSF (up to 72 h)
Compound: YVMSHFRWNKFGRRNSSSSSSSSSSSSSSSSSSGGH
